The experiment deals with CD2F1 mice, L1210 leukemia ip, survival T/C. Nature of the experiment: NCI In Vivo Anticancer Drug Screen. Data for tumor model L1210 Leukemia (intraperitoneal) in CD2F1 (CDF1) mice. The following applies: higher = longer survival. In a few lines: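 Tumor-bearing mice (transplanted tumor) were split into treated and vehicle control groups, and the measured endpoint of each treated group was divided by that of its vehicle controls.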

[1] abbreviates: endpoint: mean survival time, dose: 100.0 mg/kg/injection, schedule: Q01DX009 (ip), vehicle: saline with Tween-80.
[2] abbreviates: endpoint: mean survival time, dose: 100.0 mg/kg/injection, schedule: Q04DX003 (ip), vehicle: saline with Tween-80.
The mark [3] stands for this setting: endpoint: mean survival time, dose: 200.0 mg/kg/injection, schedule: Q01DX009 (ip), vehicle: saline with Tween-80.
Where [4] appears, read: endpoint: mean survival time, dose: 200.0 mg/kg/injection, schedule: Q04DX003 (ip), vehicle: saline with Tween-80.
Where [5] appears, read: endpoint: mean survival time, dose: 400.0 mg/kg/injection, schedule: Q01DX009 (ip), vehicle: saline with Tween-80.
Where [6] appears, read: endpoint: mean survival time, dose: 400.0 mg/kg/injection, schedule: Q04DX003 (ip), vehicle: saline with Tween-80.
Setting [7] is: endpoint: mean survival time, dose: 100.0 mg/kg/injection, schedule: Q01DX009 (ip), vehicle: saline.
[8] abbreviates: endpoint: mean survival time, dose: 200.0 mg/kg/injection, schedule: Q01DX009 (ip), vehicle: saline.
Where [9] appears, read: endpoint: mean survival time, dose: 400.0 mg/kg/injection, schedule: Q01DX009 (ip), vehicle: saline.
Setting [10] is: endpoint: mean survival time, dose: 75.0 mg/kg/injection, schedule: Q01DX001 (ip), vehicle: other.
The mark [11] stands for this setting: endpoint: mean survival time, dose: 150.0 mg/kg/injection, schedule: Q01DX001 (ip), vehicle: other.

SMILES strings stand for the structures. Values joined by “and” are separate entries in the source; they are usually repeats but may differ in a detail not shown here. Equal entries are not always repeated. Toxic doses and inconclusive results are not listed.

Consider `ON=C(Cc1ccccc1)Cc1ccccc1`, for which the T/C reads like this: under setting [1], 103 % of control; under setting [2], 102 % of control; under setting [3], 94 % of control; under setting [4], 100 % of control; under setting [5], 95 % of control; under setting [6], 105 % of control.
As to `O=C1c2ccccc2C(=O)c2cc(S(=O)(=O)Cl)ccc21`, the T/C runs as follows: under setting [7], 99 % of control; under setting [8], 92 % of control; under setting [9], 86 % of control.
Regarding `O=C1C(NCCO)=C(N2CC2)C(=O)C(NCCO)=C1N1CC1`, the T/C was 122 % of control (endpoint: median survival time, dose: 0.06 mg/kg/injection, schedule: Q01DX009 (ip), vehicle: saline); 153 % of control (endpoint: median survival time, dose: 0.25 mg/kg/injection, schedule: Q01DX009 (ip), vehicle: saline); 171 % of control (endpoint: median survival time, dose: 0.5 mg/kg/injection, schedule: Q01DX009 (ip), vehicle: saline); 220 % of control (endpoint: median survival time, dose: 1.0 mg/kg/injection, schedule: Q01DX009 (ip), vehicle: saline); 86 % of control (endpoint: median survival time, dose: 2.0 mg/kg/injection, schedule: Q01DX009 (ip), vehicle: saline).
Consider `Brc1cccc(-n2ccnc2)c1`, for which the T/C is, setting by setting: under setting [2], 102 % of control; under setting [4], 112 % of control.
As to `COc1ccc(N=C(C)C2C(=O)c3ccccc3C2=O)cc1`, the T/C is 101 % of control (endpoint: median survival time, dose: 50.0 mg/kg/injection, schedule: Q01DX005 (ip), vehicle: DMSO); 101 % of control (endpoint: median survival time, dose: 100.0 mg/kg/injection, schedule: Q01DX005 (ip), vehicle: DMSO); 103 % of control (endpoint: median survival time, dose: 200.0 mg/kg/injection, schedule: Q01DX005 (ip), vehicle: DMSO); 103 % of control (endpoint: median survival time, dose: 400.0 mg/kg/injection, schedule: Q01DX005 (ip), vehicle: DMSO); 101 % of control (endpoint: median survival time, dose: 800.0 mg/kg/injection, schedule: Q01DX005 (ip), vehicle: DMSO).
As to `Cc1ccc(S(=O)(=O)NC2CCC(C(=O)O)CC2)cc1` (configuration not stated), the T/C was 103 % of control (endpoint: mean survival time, dose: 100.0 mg/kg/injection, schedule: Q01DX009 (ip), vehicle: Klucel (hydroxypropylcellulose) (HPC)); 103 % of control (endpoint: mean survival time, dose: 200.0 mg/kg/injection, schedule: Q01DX009 (ip), vehicle: Klucel (hydroxypropylcellulose) (HPC)); 92 % of control (endpoint: mean survival time, dose: 400.0 mg/kg/injection, schedule: Q01DX009 (ip), vehicle: Klucel (hydroxypropylcellulose) (HPC)).
On to `CC1=NNC2c3ccccc3-c3ccccc3N2C1` (configuration not stated), for which the T/C (endpoint: mean survival time, dose: 100.0 mg/kg/injection, schedule: Q01DX001 (ip), vehicle: saline) was 94 % of control; the T/C (endpoint: mean survival time, dose: 200.0 mg/kg/injection, schedule: Q01DX001 (ip), vehicle: saline) is 93 % of control; the T/C (endpoint: mean survival time, dose: 400.0 mg/kg/injection, schedule: Q01DX001 (ip), vehicle: saline) is 98 % of control.
As for `COc1cc2c(cc1OC)C1Cc3ccc4cc(OC)c(OC)cc4c3CN1CC2` (configuration not stated), the T/C is 94 % of control under setting [7], 102 % of control under setting [2], 93 % of control under setting [4] and 94 % of control under setting [6].
`CC[PH+](CC)CC[S-].CC[PH+](CC)CC[S-].[Au+].[Au+]`: the T/C (endpoint: mean survival time, dose: 2.5 mg/kg/injection, schedule: Q01DX009 (ip), vehicle: Klucel (hydroxypropylcellulose) (HPC)) was 102 % of control and 107 % of control; the T/C (endpoint: mean survival time, dose: 5.0 mg/kg/injection, schedule: Q01DX009 (ip), vehicle: Klucel (hydroxypropylcellulose) (HPC)) was 95 % of control and 106 % of control; the T/C (endpoint: mean survival time, dose: 10.0 mg/kg/injection, schedule: Q01DX009 (ip), vehicle: Klucel (hydroxypropylcellulose) (HPC)) was 92 % of control and 109 % of control; the T/C (endpoint: mean survival time, dose: 20.0 mg/kg/injection, schedule: Q01DX009 (ip), vehicle: Klucel (hydroxypropylcellulose) (HPC)) was 97 % of control and 109 % of control; the T/C (endpoint: mean survival time, dose: 40.0 mg/kg/injection, schedule: Q01DX009 (ip), vehicle: Klucel (hydroxypropylcellulose) (HPC)) is 89 % of control; the T/C (endpoint: mean survival time, dose: 80.0 mg/kg/injection, schedule: Q01DX009 (ip), vehicle: Klucel (hydroxypropylcellulose) (HPC)) is 101 % of control.
As to `CC(C)(CCC(=O)O)C(=O)c1ccccc1`, the T/C (endpoint: mean survival time, dose: 50.0 mg/kg/injection, schedule: Q04DX002 (ip), vehicle: saline with Tween-80) is 98 % of control; the T/C (endpoint: mean survival time, dose: 100.0 mg/kg/injection, schedule: Q04DX002 (ip), vehicle: saline with Tween-80) is 94 % of control; the T/C (endpoint: mean survival time, dose: 200.0 mg/kg/injection, schedule: Q04DX002 (ip), vehicle: saline with Tween-80) is 94 % of control.
In the case of `c1ccc2sc(NN=c3c4ccccc4sc4ccccc34)nc2c1`, the T/C under setting [10] was 107 % of control; the T/C under setting [11] is 100 % of control; the T/C (endpoint: mean survival time, dose: 300.0 mg/kg/injection, schedule: Q01DX001 (ip), vehicle: other) is 94 % of control.
Take `CN1CCN(C(=O)Nc2ccc(N=Nc3ccccc3)cc2)CC1`: the T/C runs as follows: (endpoint: mean survival time, dose: 25.0 mg/kg/injection, schedule: Q04DX003 (ip), vehicle: saline with Tween-80) 95 % of control; (endpoint: mean survival time, dose: 50.0 mg/kg/injection, schedule: Q04DX003 (ip), vehicle: saline with Tween-80) 95 % of control; under setting [2], 88 % of control.
`COc1ccc(C(=O)NNC(=O)c2ccc(OC)c(OC)c2)cc1OC`: the T/C was 92 % of control (endpoint: mean survival time, dose: 12.5 mg/kg/injection, schedule: Q01DX009 (ip), vehicle: other); 93 % of control (endpoint: mean survival time, dose: 25.0 mg/kg/injection, schedule: Q01DX009 (ip), vehicle: other); 92 % of control (endpoint: mean survival time, dose: 50.0 mg/kg/injection, schedule: Q01DX009 (ip), vehicle: other); 108 % of control (endpoint: mean survival time, dose: 100.0 mg/kg/injection, schedule: Q01DX009 (ip), vehicle: other); 107 % of control (endpoint: mean survival time, dose: 200.0 mg/kg/injection, schedule: Q01DX009 (ip), vehicle: other).
For `O=c1[nH][nH]c(=O)c2c1ncn2C1OC(CO)C(O)C1O` (configuration not stated), the T/C (endpoint: mean survival time, dose: 12.5 mg/kg/injection, schedule: Q01DX005 (ip), vehicle: water) is 101 % of control; the T/C (endpoint: mean survival time, dose: 25.0 mg/kg/injection, schedule: Q01DX005 (ip), vehicle: water) is 100 % of control; the T/C (endpoint: mean survival time, dose: 50.0 mg/kg/injection, schedule: Q01DX005 (ip), vehicle: water) was 101 % of control; the T/C (endpoint: mean survival time, dose: 100.0 mg/kg/injection, schedule: Q01DX005 (ip), vehicle: water) is 101 % of control; the T/C (endpoint: mean survival time, dose: 200.0 mg/kg/injection, schedule: Q01DX005 (ip), vehicle: water) is 100 % of control.
`C=CCOCC(O)CN(CCC)CCC` (configuration not stated): the T/C was 103 % of control (endpoint: mean survival time, dose: 12.5 mg/kg/injection, schedule: Q01DX009 (ip), vehicle: saline); 95 % of control (endpoint: mean survival time, dose: 25.0 mg/kg/injection, schedule: Q01DX009 (ip), vehicle: saline); 93 % of control (endpoint: mean survival time, dose: 25.0 mg/kg/injection, schedule: Q04DX003 (ip), vehicle: saline); 103 % of control (endpoint: mean survival time, dose: 50.0 mg/kg/injection, schedule: Q01DX009 (ip), vehicle: saline); 89 % of control (endpoint: mean survival time, dose: 50.0 mg/kg/injection, schedule: Q04DX003 (ip), vehicle: saline); 97 % of control under setting [2].
For `N/C(=N\O)c1ncn(C2CCCC2)c1N`, the T/C under setting [10] is 100 % of control and the T/C under setting [11] is 102 % of control.
`CC/C=C(\CC)C(=O)O`: the T/C is 109 % of control (endpoint: mean survival time, dose: 50.0 mg/kg/injection, schedule: Q01DX009 (ip), vehicle: saline with Tween-80); 105 % of control under setting [1]; 105 % of control under setting [3].
Regarding `CCCCC(C(=O)OCC)C1=NC(C)(C)CC(C)O1` (configuration not stated), the T/C runs as follows: under setting [7], 98 % of control; (endpoint: mean survival time, dose: 100.0 mg/kg/injection, schedule: Q04DX003 (ip), vehicle: acetone) 101 % of control; under setting [8], 97 % of control; (endpoint: mean survival time, dose: 200.0 mg/kg/injection, schedule: Q04DX003 (ip), vehicle: acetone) 90 % of control; under setting [9], 97 % of control; (endpoint: mean survival time, dose: 400.0 mg/kg/injection, schedule: Q04DX003 (ip), vehicle: acetone) 91 % of control.
Consider `Cc1ccc(S(=O)(=O)O)c2c([N+](=O)[O-])cccc12`, for which the T/C is, setting by setting: under setting [2], 100 % of control; under setting [4], 104 % of control; under setting [6], 96 % of control.
Consider `Cc1ncc(C(=O)O)n1Cc1ccccc1`, for which the T/C was 94 % of control under setting [1], 94 % of control under setting [3] and 92 % of control under setting [5].
Turning to `COc1ccc(C(=O)CCCC(=O)O)cc1`, the T/C reads like this: under setting [1], 90 % of control; under setting [3], 101 % of control; under setting [5], 97 % of control.
